Source: patent US6933318B1, “Topical organic ectoparasiticidal formulations” (Eli Lilly and Company, priority 1999, dated 2005)
Entries after “also recorded” stand apart in the source; their conditions may differ.

Assay: Wetting test of solvent systems on tanned rabbit pelt
Assay type: physicochemical
Conditions: about 1 mL solvent without active ingredient, dropwise, pelt at about 45°
Procedure: To determine organic solvents that are useful spreading agents, solvent systems that are capable of solubilizing at least 1% spinosad by weight percent were screened for hair wetting by applying about 1 mL of the solvent system (solvents were screened without active ingredient), dropwise, to a tanned rabbit pelt that was at an angle of about 45°. […]

Ability to wet rabbit hair | SMILES
Wet Well | C=C(C)[C@H]1CC=C(C)CC1 [limonene]
Wet Well | CCCCOC(=O)C(C)O (stereo not shown) [butyl lactate]
Wet Well | CCCCCCCC/C=C\CCCCCCCC(=O)OCC [ethyl oleate]
Wet Well | CCCCCCCCCC(=O)OC [methyl caprate]
Wet Well | CCCCCCO [hexanol]
Did Not Wet | CC(=O)OCC(COC(C)=O)OC(C)=O [triacetin]
Wet Well | CCCCCCCC(=O)O [octanoic acid]
Did Not Wet | CC(O)CO (stereo not shown) [propylene glycol]
Did Not Wet | CN1CCCC1=O [N-methyl pyrrolidone]
Wet Well | CCCCCCCC/C=C\CCCCCCCC(=O)OC [methyl oleate]
Wet Well | CCCCCCCCCCCC(=O)OC [methyl laurate]
Wet Well | CCCCCCCCCCCCCC(=O)OC(C)C [isopropyl myristate]

SMILES | Ability to wet rabbit hair
COC(C)COC(C)CO (stereo not shown) [dipropylene glycol methyl ether] | wet the hair very well; also recorded: Wet Well
